Key:
[1] = system: rabbit aortic smooth muscle; assay: Ca+2 antagonism: relaxation of KCl-depolarized rabbit aortic smooth muscle strips; settings: Oryctolagus cuniculus, 20 min, compound 1 x 10^-5M; 100mM KCl contraction; 20 minutes after addition; mean of two experiments; read-out: P.R. (percent relaxation of aortic tissue)
Experimental: The composition of PSS was as follows (mM): NaCl 112,KCI 5, NaHCO3 25 KH2PO4 1, MgSO4 1.2, CaCl2 2.5, dextrose 10. The lower end of each tissue strip was attached to a fixed post and the upper end to a Statham UC-4 transducer. Changes in force development were recorded on a Beckman Dynograph Polygraphic Recorder.
Following equilibration, the muscles were contracted in a depolarizing solution of PSS in which 100mM KCI was substituted for an equimolar concentration of NaCI. Following attainment of steady- state isometric force (20 min.), the test compound was added to afford a final concentration of 1 x 10^-5M. The inhibitory effect, expressed as percent relaxation, was determined from the mean of two experiments twenty minutes after the addition of the compound being tested.
(§1) The following examples illustrate the preparation of a representative number of compounds of this invention. After each example, the Ca+2 antagonist activity of the compound is presented in terms of percent relaxation of aortic tissue (P.R.) at 10-^5M concentration. […] Inhibition of super- precipitation (Antag. of Actin-Myosin interaction) is expressed as percent inhibition (mean ± standard error of the mean for at least 3 separate experiments) at a compound concentration. In the same manner, inhibition of myosin light chain phosphorylation (Antag. of MLCP) is expressed as a percent inhibition at a compound concentration. Similarly, the antihypertensive activity is reported in terms of millimetres mercury (mmHg) systolic blood pressure (B.P.) reduction at the stated time post 50 mg/kg oral dosing or other dosing as indicated.

[2] = system: isolated paced intact rabbit atria; assay: Cardiac depressant (negative inotropic) effect in isolated paced rabbit atria; settings: Oryctolagus cuniculus; rabbit atria paced at 3Hz, 30°C, cumulative dosing; read-out: IC25 (concentration which produces 25% inhibition of isometric force)
Experimental: The potential for detrimental cardiac depressant (negative inotropic) effects of the compounds of this invention was assessed in isolated paced intact rabbit atria. […] Muscles (N=5-9/compound) were stimulated at a frequency of 3Hz with a WPI stimulator for a 60 minute equilibration period. Changes in isometric force were recorded as described for the aortic smooth muscle experiments, supra. […]

[3] = system: spontaneously hypertensive rats; assay: Hypotensive effect: systolic blood pressure of spontaneously hypertensive rats; format: in vivo; settings: mmHg per method
Experimental: The hypotensive in vivo effect of the compounds of this invention was determined by measuring changes in the systolic blood pressure of spontaneously hypertensive rats with a Decker Caudal Plethysmograph. The compound being tested was administered to a group of 4 rats and their systolic pressure was determined prior to and at 1.5 and 4 hours after compound administration. Initial testing was done by oral administration of the compound. Results (mmHg) are expressed as decreases in systolic blood pressure.
as §1

[4] = system: arterial actin-myosin interactions; assay: Inhibition of superprecipitation (antagonism of actin-myosin interaction), Silver et al.; format: biochemical; settings: six minute time-point
Experimental: . The data reported herein was obtained at a six minute time-point rather than the 1.5, 5 and 12 minute time points indicated in the superprecipita- tion assay of the Silver et al paper.
as §1

[5] = target: Ca^+2-calmodulin dependent myosin light chain phosphorylation (Bos taurus, UniProt Q28824); assay: Inhibition of myosin light chain phosphorylation (MLCP), Silver et al.; format: biochemical; settings: read-out: Antag. of MLCP (percent inhibition of myosin light chain phosphorylation)
Experimental: The data reported herein was obtained at a six minute time-point rather than the 1.5, 5 and 12 minute time points indicated in the superprecipita- tion assay of the Silver et al paper.
as §1

[6] = dose 10mg/kg oral, at 1.5 hours
[7] = dose 25mg/kg oral, at 1.5 hours
[8] = dose 50mg/kg oral, at 1.5 hours

Structure (SMILES)	inhibition at 10 µM [1] [%]	IC25 [2] [µM]	B.P. (systolic blood pressure reduction) [3, 6] [mm]	Antag. of Actin-Myosin (percent inhibition of superprecipitation) ([4]; 25µM) [%]	Antag. of Actin-Myosin (percent inhibition of superprecipitation) ([4]; 50µM) [%]	inhibition at 25 µM [5] [%]	inhibition at 50 µM [5] [%]	inhibition at 100 µM [5] [%]	B.P. (systolic blood pressure reduction) [3, 7] [mm]	B.P. (systolic blood pressure reduction) ([3]; dose 25mg/kg oral, at 4 hours) [mm]	Antag. of Actin-Myosin (percent inhibition of superprecipitation) ([4]; 100µM) [%]	B.P. (systolic blood pressure reduction) [3, 8] [mm]	B.P. (systolic blood pressure reduction) ([3]; dose 50mg/kg oral, at 4 hours) [mm]	B.P. (systolic blood pressure reduction) ([3]; dose 10mg/kg oral, at 4 hours) [mm]	Antag. of Actin-Myosin (percent inhibition of superprecipitation) ([4]; 10µM) [%]	inhibition at 10 µM ([5]; 10µM) [%]
CC1=C(C(=O)OCCOc2ccccc2)C(c2c(F)c(F)c(F)c(F)c2F)C2=C(CNCC2=O)N1 (racemic) [Example 2, 1,4,5,6,7,8-Hexahydro-2-methyl-5-oxo-4-(pentafluorophenyl)-1,7-naphthyridine-3-carboxylic acid 2-phenoxvethvl ester]	71	1	-39	28± 2	58± 4	24 ± 3	54 ± 4	69 ± 3	–	–	–	–	–	–	–	–
CC1=C(C(=O)OCCOc2ccccc2)C(c2c(F)c(F)c(F)c(F)c2F)C2=C(CNCC2=O)N1 (single isomer, unassigned; (-)) [Example 3, (-)-1,4,5,6,7,8-Hexahydro-2-methyl-5-oxo-4-(pentafluorophenyl)-1,7-naphthridine-3-carboxylic acid 2-phenoxyethyl ester]	56	> 10	–	–	65	–	57	70	-6	-14	76	–	–	–	–	–
COC(COC(=O)C1=C(C)NC2=C(C(=O)CNC2)C1c1cccc(Cl)c1Cl)c1ccccc1 (stereo not shown) [Example 1, 4-(2,3-Dichloroohenyl)-1,4,5,6,7,8-hexahydro-2-methyl-5-oxo-1,7-naphthyridine-3-carboxylic acid 2-methoxy-2-phenylethyl ester]	32	10	–	43± 2	75±3	38 ± 3	66	76 ± 2	–	–	83± 3	-53	-30	–	–	–
CO[C@@H](COC(=O)C1=C(C)NC2=C(C(=O)CNC2)C1c1c(F)c(F)c(F)c(F)c1F)c1ccccc1 (stereo partly drawn) [Example 6, 1,4,5,6,7,8,-Hexahydro-2-methyl-5-oxo-4-(pentafluorophenyl)-1,7-naphthyridine-3-carboxylic acid (R)-2-methoxy-2-phenylethyl ester]	71	0.6	-56	–	64	–	56	70	–	–	74	–	–	-49	–	–
CO[C@H](COC(=O)C1=C(C)NC2=C(C(=O)CNC2)C1c1c(F)c(F)c(F)c(F)c1F)c1ccccc1 (stereo partly drawn) [Example 7, 1,4,5,6,7,8-Hexahydro-2-methyl-5-oxo-4-(pentafluorophenyl)-1,7-naphthyridine-3-carboxylic acid (S)-2-methoxy-2-ohenylethyl ester]	68	65	-51	–	67	–	59	74	–	–	80	–	–	-54	–	–
COC(COC(=O)C1=C(C)NC2=C(C(=O)CNC2)C1c1cccc(Cl)c1C)c1ccccc1 (stereo not shown) [Example 10, 4-(3-chloro-2-methylphenyl)-1,4,5,6,7,8-hexahydro-2-methyl-5-oxo-1,7-naphthyridine-3-carboxylic acid 2-methoxy-2-phenylethyl ester]	60	> 10	-28	45±3	68±2	35 ± 5	62 ± 1	75 ± 3	–	–	76±2	–	–	-19	–	–
COC(COC(=O)C1=C(C)NC2=C(C(=O)CNC2)C1c1ccccc1C(F)(F)F)c1ccccc1 (stereo not shown) [Example 12, 1,4,5,6,7,8-Hexahydro-2-methyl-5-oxo-4-[2-(trifluoromethyl)phenyl]-1,7-naphthyridine-3-carboxylic acid 2-methoxv-2-ohenvlethvl ester]	39	2	–	–	–	–	–	24	-56	-56	30	–	–	–	–	–
CC1=C(C(=O)OC(C)COc2ccccc2)C(c2c(F)c(F)c(F)c(F)c2F)C2=C(CNCC2=O)N1 (stereo not shown) [Example 13, 1,4,5,6,7,8-Hexahydro-2-methyl-5-oxo-4-(pentafluorophenyl)-1,7-naphthylidine-3-carboxylic acid 1-methvl-2-ahenoxvethvl ester]	46	10	–	61	–	58	–	70	–	–	78	-35	-60	–	–	–
CC1=C(C(=O)OCC2COc3ccccc3O2)C(c2c(F)c(F)c(F)c(F)c2F)C2=C(CNCC2=O)N1 (stereo not shown) [Example 14, 1,4,5,6,7,8-Hexahydro-2-methyl-5-oxo-4-(pentafluorophenyl)-1,7-naphthyridine-3-carboxylic acid 2.3-dihvdro-1.4-benzodioxin-2-vimethvl ester]	62	3.2	–	65	–	59	–	76	–	–	80	-46	-42	–	–	–
CC1=C(C(=O)OCCOc2ccccc2)C(c2ccccc2C)C2=C(CNCC2=O)N1 (stereo not shown) [Example 15, 1,4,5,6,7,8-Hexahydro-2-methyl-4-(2-methylphenyl)-5-oxo-1,7-naphthyridine-3-carboxylic arid 2-phenoxyethyl ester]	63	4.7	–	–	–	–	–	–	-29	-39	66±5	–	–	–	–	–
CC1=C(C(=O)OCCOc2ccccc2)C(c2cccc(Cl)c2C)C2=C(CNCC2=O)N1 (stereo not shown) [Example 17, 4-(3-Chloro-2-methylphenyl)-1,4,5,6,7,8-hexahydro-2-methyl-5-oxo-1,7-naphthyridine-3-carboxylic acid 2-phenoxyethyl ester]	74	1	–	44±2	64±3	39 ± 2	59 ± 3	67 ± 2	-10	-45	71±2	–	–	–	22	11
